Broadly, the Km is the substrate concentration at which the rate is half of its maximum.

For assay [1], the system named is T1, SuSy3-haplotype#9.
T1 construct: natural wild-species haplotype, full length (805 aa), in pDR195, expressed in Saccharomyces cerevisiae 22574d, IEX- and IMAC-purified; equals S. lycopersicum SuSy3 haplotype#1 with S53A/S106I/E727D/K741E (natural differences)
The assay is described as follows: sucrose cleavage; UDP-glucose quantified by UDP-glucose dehydrogenase / NADH; Michaelis-Menten fit. The following applies: 4 mM UDP, 20 mM HEPES pH 7.5, 25 °C; IMAC-purified. It is filed as biochemical, Solanum arcanum. An excerpt:
sucrose cleavage; UDP-glucose quantified by UDP-glucose dehydrogenase / NADH; Michaelis-Menten fit on SuSy3-haplotype#9

The subject of assay [2] is T2, SuSy3-haplotype#10.
T2 construct: natural wild-species haplotype, full length (805 aa), in pDR195, expressed in Saccharomyces cerevisiae 22574d, IEX-purified only; equals S. lycopersicum SuSy3 haplotype#1 with S53A/S106I/Q349L/E727D/K741E (natural differences)
Described as above. Type of assay: biochemical, Solanum neorickii. The following applies: 4 mM UDP, 20 mM HEPES pH 7.5, 25 °C; IEX-purified only (lower purity). From the text: sucrose cleavage; UDP-glucose quantified by UDP-glucose dehydrogenase / NADH; Michaelis-Menten fit on SuSy3-haplotype#10

Take `OC[C@H]1O[C@@](CO)(O[C@H]2O[C@H](CO)[C@@H](O)[C@H](O)[C@H]2O)[C@@H](O)[C@@H]1O` [sucrose]: the Km in assay [1] worked out at 33 ± 9 mM; in assay [2], 58 ± 14 mM.

(Values after PMC6205638, “Exploring natural genetic variation in tomato sucrose synthases on the basis of increased kinetic properties” (PLoS ONE, 2018).)
